Columns and labels:
CCRF-CEM leukemia cells = experiment: Resazurin reduction assay (RRA), 72 h; assay type: cell-based; settings: Homo sapiens, 72 h incubation
Text: (§1) Cell lines used in this work included drug-sensitive and drug-resistant phenotypes of earlier reported origin. They were all provided by Prof. Dr. Thomas Efferth from his cell lines collection; they have being used in cytotoxicity screening by our team for a decade. These include two hematological cancer cell lines, namely, the drug-sensitive CCRF-CEM leukemia cell line and its multidrug-resistant P-gp-over-expressing subline CEM/ADR5000 cells and […] carcinoma cell lines, namely, U87.MG glioblastoma cell line and its EGFR-transfected U87.MGΔEGFR subline, HCT116 (p53^+/+) colon cancer cell line and its knockout clone HCT116 (p53^−/^−), and MDA-MB-231-pcDNA3 breast cancer cell line and its BCRP-transfected multidrug-resistant MDA-MB-231-BCRP clone 23 cell line, as well as the normal AML12 hepatocytes, used to compare with HepG2 liver cancer cells.
(§2) The RRA was applied to evaluate the cytotoxicity of botanicals, the isolated phytochemicals (1–5, 7, and 8), and doxorubicin on the cell growth as reported earlier. Cells treated with various samples at different concentrations were incubated for 72 h in humidified 5% CO2 atmosphere at 37°C. Cells were further coloured with resazurin and incubated for 1–2 h; the fluorescence was further measured with an Infinite M2000 Pro™ plate reader (Tecan, Crailsheim, Germany) at 544 nm as the excitation wavelength and 590 nm as the emission wavelength. The IC50 values represented the concentrations of the sample required to inhibit 50% of cell proliferation and were calculated from a calibration curve by linear regression using Microsoft Excel 2007 [29].

[1] = tested on: MDA-MB-231-pcDNA breast cancer cells; experiment: Resazurin reduction assay (RRA), 72 h; assay type: cell-based; settings: 72 h incubation
Text: as §1, §2

normal AML12 hepatocytes = experiment: Resazurin reduction assay (RRA), 72 h; assay type: cell-based; settings: for IC50: Mus musculus, AML12 normal hepatocytes, 72 h incubation; for Selectivity index: IC50 normal AML12 hepatocytes divided by IC50 HepG2
Text: as §1, §2

[2] = tested on: MDA-MB-231-BCRP breast cancer cells; experiment: Resazurin reduction assay (RRA), 72 h; assay type: cell-based; settings: 72 h incubation
Text: as §1, §2

[3] = tested on: HCT116 (p53+/+) colon adenocarcinoma cells; experiment: Resazurin reduction assay (RRA), 72 h; assay type: cell-based; settings: Homo sapiens, HCT-116, 72 h incubation
Text: as §1, §2

[4] = tested on: HCT116 (p53-/-) colon cancer cells; experiment: Resazurin reduction assay (RRA), 72 h; assay type: cell-based; settings: Homo sapiens, HCT-116, 72 h incubation
Text: as §1, §2

U87MG glioblastoma cells = experiment: Resazurin reduction assay (RRA), 72 h; assay type: cell-based; settings: Homo sapiens, U-87 MG, 72 h incubation
Text: as §1, §2

[5] = tested on: HepG2 hepatocarcinoma cells; experiment: Resazurin reduction assay (RRA), 72 h; assay type: cell-based; settings: Homo sapiens; HepG2, 72 h incubation
Text: as §1, §2

[6] = tested on: CEM/ADR5000 leukemia cells (P-gp-overexpressing); experiment: Resazurin reduction assay (RRA), 72 h; assay type: cell-based; settings: Homo sapiens; CEM/ADR5000, 72 h incubation
Text: as §1, §2

[7] = tested on: U87MG.ΔEGFR glioblastoma cells; experiment: Resazurin reduction assay (RRA), 72 h; assay type: cell-based; settings: 72 h incubation
Text: as §1, §2

[8] = tested on: 9 tested cancer cell lines; experiment: Resazurin reduction assay (RRA), whole panel; assay type: cell-based; settings: for cytotoxic effect over the panel (in words): 9 tested cancer cell lines; for IC50: whole cell line panel, 72 h, read-out: IC50 in the cancer cells tested
Text: as §1, §2

CEM-ADR5000 cells = tested on: CEM-ADR5000 cells; design: method as in PMID 31360210; settings: cited from earlier work
HepG2 cells = tested on: HepG2 cells; design: method as in PMID 31360210; settings: cited from earlier work
K562 leukemia cells = tested on: K562 leukemia cells; design: method as in PMID 31479710; settings: cited from earlier work
[9] = tested on: reactive oxygen species in CCRF-CEM cells; experiment: ROS production (H2DCFH-DA staining, flow cytometry); assay type: cell-based; settings: 24 h
Method: Various concentrations of HRB and triterpenoid 1 were used to treat CCRF-CEM cells (1 × 10^6 cells); DMSO (solvent control); or hydrogen peroxide (H2O2; positive control). After 24 h incubation in humidified 5% CO2 atmosphere at 37°C, the production of ROS was evaluated using 2′,7′-dichlorodihydrofluorescein diacetate (H2DCFH-DA) (Sigma-Aldrich) staining, as described earlier.

[10] = tested on: caspase 9 in CCRF-CEM cells; experiment: Caspase-Glo 9 assay; assay type: cell-based; settings: 6 h, compared to untreated cells
Method: (§3) Different concentrations of HRB and compound 1 were used to treat CCRF-CEM cells for 6 h. The activities of caspases were determined using Caspase-Glo 3/7, Caspase-Glo 8, and Caspase-Glo 9 Assay kits (Promega, Mannheim, Germany) by measuring the luminescence using an Infinite M2000 ProTM plate reader (Tecan), as reported previously.

[11] = tested on: caspase 8 in CCRF-CEM cells; experiment: Caspase-Glo 8 assay; assay type: cell-based; settings: 6 h, compared to untreated cells
Method: as §3

CCRF-CEM cells [12] = experiment: Flow cytometric cell cycle distribution (propidium iodide); assay type: cell-based; settings: 24 h
Method: Various concentrations of botanical HRB, phytochemical 1, and doxorubicin or DMSO (solvent control) were used to treat CCRF-CEM cells (1 × 10^6 cells). Cells were further incubated for 24 h in humidified 5% CO2 atmosphere at 37°C and analyzed using a BD Accury C6 Flow Cytometer (BD Biosciences, Heidelberg, Germany) by measuring the propidium iodide fluorescence of individual nucleus, as described earlier. Experiments were conducted thrice independently with three parallel measurements.

[13] = tested on: caspases 3/7 in CCRF-CEM cells; experiment: Caspase-Glo 3/7 assay; assay type: cell-based; settings: 6 h, compared to untreated cells
Method: as §3

CCRF-CEM cells [14] = experiment: Apoptosis by annexin V/PI staining; assay type: cell-based; settings: 24 h, 2 × IC50
Method: The CCRF-CEM cells (1 × 10^6; 1 ml) were also treated with HRB, compound 1 and doxorubicin for 24 h (in humidified 5% CO2 atmosphere at 37°C), and apoptosis was further assessed by flow cytometry using the flouresceinisothiocynate- (FITC-) conjugated annexin V/PI assay kit (eBioscience™Annexin V; Invitogen, San Diego, USA), as previously published. Briefly, treated cells were centrifuged at 1200 rpm for 5 min, then washed twice with ice-cold PBS, resuspended in 500 µl binding buffer, and stained with 5 µl FITC-conjugated annexin V ([…]) and 10 µl PI ([…]). After 15 min incubation at room temperature (RT) in the dark, cells were analyzed using a BD Accury C6 Flow Cytometer (BD Biosciences). Cells stained with only annexin V were evaluated as being in early apoptosis. Cells stained with both annexin V and propidium iodide were evaluated as being in late apoptosis or in a necrotic stage.

[15] = tested on: all cancer cell lines tested in the present study; design: method as in PMID 24075210; settings: cited from earlier work

Molecule	IC50 (CCRF-CEM leukemia cells)	IC50 [1]	IC50 (normal AML12 hepatocytes)	IC50 [2]	IC50 [3]	IC50 [4]	IC50 (U87MG glioblastoma cells)	IC50 [5]	IC50 [6]	IC50 [7]	cytotoxic effect over the panel (in words) [8]	other results
COc1cccc2c(=O)c3cc(O)ccc3oc12 [Compound 3, 2-hydroxy-5-methoxyxanthone]	16.8 ± 0.96 µM	43.8 ± 3.47 µM	> 165 µM	33.6 ± 1.99 µM	46.7 ± 3.38 µM	> 165 µM	74.4 ± 4.75 µM	44.2 ± 2.65 µM	53 ± 3.08 µM	45 ± 5.22 µM	selective cytotoxic effects	
C=C(C)[C@@H]1CC[C@]2(C(=O)O)CC[C@]3(C)[C@H](CC[C@@H]4[C@@]5(C)CC[C@H](O)C(C)(C)[C@@H]5CC[C@]43C)[C@@H]12 [Compound 6, betulinic acid]												IC50 (CEM-ADR5000 cells): 7.65 µM; IC50 (HepG2 cells): 44.2 µM
O=c1c2ccc(O)c(O)c2oc2cc(O)cc(O)c12 [Compound 5, 1,3,5,6-tetrahydroxyxanthone]	38.6 ± 2.11 µM	75.2 ± 4.88 µM	150 ± 7.03 µM	62.9 ± 5.32 µM	75.5 ± 6.1 µM	112 ± 8.49 µM	61.4 ± 3.39 µM	64.7 ± 5.77 µM	38.5 ± 4.07 µM	59 ± 6.01 µM		cytotoxic effect against K562 (K562 leukemia cells): 12.98 µg/mL; IC50 (K562 leukemia cells; read-out: cytotoxic effect against K562): 49.9 µM
OO [H2O2, Hydrogen peroxide, reference compound]												ROS levels ([9]; 50 µM): 94.30%
O=c1c2cc(O)c(O)cc2oc2cc(O)cc(O)c12 [Compound 4, 1,3,6,7-tetrahydroxyxanthone]	19.9 ± 2.12 µM	> 154 µM	45.4 ± 3.52 µM	20.4 ± 1.17 µM	40.2 ± 3.09 µM	> 154 µM	106 ± 6.74 µM	32.4 ± 3.72 µM	23.2 ± 1.66 µM	30.4 ± 2.91 µM	selective cytotoxic effects	Selectivity index (normal AML12 hepatocytes): 1.40
C[C@H]1C(=O)CC[C@@H]2[C@]1(C)CC[C@H]1[C@@]2(C)CC[C@@]2(C(=O)O)C3CC(C)(C)CC[C@]3(C)CC[C@]12C (stereo partly drawn) [Compound 1, trichadonic acid]	14.4 ± 0.53 µM	16.5 ± 0.74 µM	47.3 ± 0.81 µM	15 ± 1.17 µM	17.4 ± 1.84 µM	44.2 ± 3.21 µM	16.2 ± 1.09 µM	21.7 ± 3.18 µM	18.3 ± 1.56 µM	14.7 ± 1.55 µM		increase of caspase 9 activity [10]: 2.23 fold; ROS production ([9]; 7.22 µM): 12.35%; ROS production ([9]; 57.76 µM): 68.12%; ROS production ([9]; 2 × IC50): ≤ 68.12%; IC50 [8]: 14.4 to 44.2 µM; increase of caspase 8 activity [11]: 2.62 fold; cell cycle arrest (phase, in words) (CCRF-CEM cells [12]): cell cycle arrest in the Go/G1 phase; cells in sub-G0/G1 phase (CCRF-CEM cells [12]; 1/4 × IC50): 1.86%; cells in sub-G0/G1 phase (CCRF-CEM cells [12]; 2 × IC50): 17.40%; increase of caspases 3/7 activity [13]: 2.52 fold; annexin V (+)/PI (+) cells (CCRF-CEM cells [14]): 52.5%
COc1cc(C2Oc3ccc4c(=O)c5ccccc5oc4c3OC2CO)cc(OC)c1O (stereo not drawn) [Compound 8, 3′-hydroxymethyl-2′-(4″-hydroxy-3″,5″-dimethoxyphenyl)-5′,6′:5,6-(xanthone)-1′,4′-dioxane]	16.3 ± 2.12 µM	36.9 ± 2.73 µM	> 85.5 µM	30.5 ± 1.88 µM	37.8 ± 2.92 µM	> 85.5 µM	35.5 ± 3.28 µM	31.3 ± 1.19 µM	43.5 ± 2.97 µM	30.6 ± 3.14 µM	selective cytotoxic effects	
C[C@H]1C(=O)CC[C@@H]2[C@]1(C)CC[C@H]1[C@@]2(C)CC[C@@]2(C)C3CC(C)(C)CC[C@]3(C)CC[C@]12C (stereo partly drawn) [Compound 2, fridelan-3-one]												IC50 [8]: > 100 µM
COc1cc(C2Oc3ccc4c(=O)c5c(O)cc(O)cc5oc4c3OC2CO)cc(OC)c1O (stereo not drawn) [Compound 7, 3′-hydroxymethyl-2′-(4″-hydroxy-3″,5″-dimethoxyphenyl)-5′,6′:5,6-(6,8-dihydroxyxanthone)-1′,4′-dioxane]	23.3 ± 1.46 µM	20.7 ± 1.32 µM	20.9 ± 1.17 µM	22.2 ± 2.88 µM	> 91.7 µM	> 91.7 µM	29.7 ± 1.77 µM	25.2 ± 1.69 µM	54 ± 4.38 µM	12.7 ± 0.75 µM	selective cytotoxic effects	Selectivity index (normal AML12 hepatocytes): 0.83
COc1cccc2c1C(=O)c1c(O)c3c(c(O)c1C2=O)C[C@@](O)(C(=O)CO)C[C@@H]3O[C@H]1C[C@H](N)[C@H](O)[C@H](C)O1 [Doxorubicin, reference compound]	0.02 µM	0.13 ± 0.01 µM	52.9 ± 4.09 µM	0.79 ± 0.08 µM		1.78 ± 0.08 µM	0.26 ± 0.03 µM	4.56 ± 0.48 µM		0.98 ± 0.07 µM		cell cycle arrest (phase, in words) (CCRF-CEM cells [12]): S and G2/M phase arrest
cudraxanthone I												IC50 [15]: < 10 µM
